pIC50, pKi: −log10 of the molar value.
target: Stromelysin-1 (Homo sapiens, UniProt P08254)
Sequence (P08254 whole entry): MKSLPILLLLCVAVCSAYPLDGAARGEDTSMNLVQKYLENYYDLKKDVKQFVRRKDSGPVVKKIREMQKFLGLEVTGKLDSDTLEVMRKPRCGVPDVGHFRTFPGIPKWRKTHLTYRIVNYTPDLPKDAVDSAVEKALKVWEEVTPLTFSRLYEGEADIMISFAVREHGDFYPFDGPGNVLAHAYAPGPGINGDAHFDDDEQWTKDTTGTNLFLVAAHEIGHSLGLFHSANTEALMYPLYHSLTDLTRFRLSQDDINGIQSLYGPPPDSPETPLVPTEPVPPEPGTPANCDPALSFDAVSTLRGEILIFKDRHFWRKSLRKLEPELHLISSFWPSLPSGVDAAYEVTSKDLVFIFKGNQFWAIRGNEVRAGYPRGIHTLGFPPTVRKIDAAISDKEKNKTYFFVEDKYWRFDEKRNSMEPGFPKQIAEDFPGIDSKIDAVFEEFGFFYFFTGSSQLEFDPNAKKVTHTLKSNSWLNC
Description: Inhibitory concentration against Matrix metalloprotease-3

| pIC50 | SMILES |
| --- | --- |
| 4.01 | Sc1nnc(NCc2ccccc2)s1 |
| < 2.70 | O=C(NCc1ccccc1)Nc1nncs1 |
| 4.64 | O=C(NCc1cccc2ccccc12)Nc1nnc(S)s1 |
| 3.72 | Sc1nnc(Nc2ccccc2)s1 |
| 4.54 | O=C(Nc1ccc(F)cc1)Nc1nnc(S)s1 |
| 3.50 | Sc1nnc(NCCCCc2ccccc2)s1 |
| 4.33 | Sc1nnc(NCCc2ccccc2)s1 |
| < 3.00 | CCN(C(=O)NCCc1ccccc1)c1nnc(S)s1 |
| 3.16 | Cn1nc(NC(=O)NCCc2ccccc2)sc1=S |
| 3.54 | Sc1nnc(NCc2ccco2)s1 |
| < 2.70 | CCNc1nnc(S)s1 |
| 4.47 | O=C(NCCCCc1ccccc1)Nc1nnc(S)s1 |
| 3.76 | Cc1cccc(Cl)c1Nc1nnc(S)s1 |
| 4.00 | O=C(Nc1ccccc1)Nc1nnc(S)s1 |
| 4.01 | CCCCCCCCCCCCNc1nnc(S)s1 |

target: T1, Interstitial collagenase (Homo sapiens, UniProt P03956)
T1 sequence (P03956 whole entry): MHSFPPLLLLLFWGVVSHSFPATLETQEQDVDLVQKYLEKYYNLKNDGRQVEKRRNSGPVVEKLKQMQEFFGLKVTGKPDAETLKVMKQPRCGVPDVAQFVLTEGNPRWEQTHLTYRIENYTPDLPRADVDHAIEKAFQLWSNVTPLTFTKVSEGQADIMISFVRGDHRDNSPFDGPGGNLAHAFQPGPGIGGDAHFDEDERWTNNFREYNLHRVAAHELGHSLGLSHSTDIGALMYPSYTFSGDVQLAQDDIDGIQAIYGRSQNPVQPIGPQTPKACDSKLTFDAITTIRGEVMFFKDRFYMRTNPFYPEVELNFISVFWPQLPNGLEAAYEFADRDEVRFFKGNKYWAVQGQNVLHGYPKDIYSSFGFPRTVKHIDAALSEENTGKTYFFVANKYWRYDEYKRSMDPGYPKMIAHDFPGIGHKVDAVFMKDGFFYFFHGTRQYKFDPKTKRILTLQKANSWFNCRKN
Description: Binding affinity for matrix metalloprotease-1

| pKi | SMILES |
| --- | --- |
| 4.51 | CNC(=O)[C@H](Cc1ccccc1)NC(=O)Nc1nnc(S)s1 |
| < 3.70 | CNC(=O)[C@H](CC(C)C)NC(=O)Nc1nnc(S)s1 |
| < 3.70 | CNC(=O)[C@H](CO)NC(=O)Nc1n[nH]c(=S)s1 |
| 5.22 | COc1ccc(N2CCN(C(=O)[C@H](Cc3ccccc3)NC(=O)Nc3nnc(S)s3)CC2)cc1 |
| 5.21 | COc1ccc(CNC(=O)[C@H](Cc2ccccc2)NC(=O)Nc2nnc(S)s2)cc1OC |
| 4.92 | O=C(Nc1nnc(S)s1)N[C@@H](Cc1ccccc1)C(=O)N1CCSCC1 |
| < 3.70 | O=C(Nc1nnc(S)s1)N[C@@H](Cc1ccccc1)C(=O)O |
| 4.70 | O=C(Nc1nnc(S)s1)N[C@@H](Cc1ccccc1)C(=O)N1CCCC1 |
| 5.52 | CNC(=O)[C@H](Cc1c(F)c(F)c(F)c(F)c1F)NC(=O)Nc1nnc(S)s1 |
| 4.54 | O=C(Nc1nnc(S)s1)N[C@@H](Cc1ccccc1)C(=O)N1CCN(Cc2ccccc2)CC1 |
| 5.82 | O=C(Nc1nnc(S)s1)N[C@@H](Cc1ccccc1)C(=O)N1CCN(c2ccccn2)CC1 |
| 4.68 | CNC(=O)[C@H](Cc1ccc(O)cc1)NC(=O)Nc1nnc(S)s1 |
| < 3.70 | O=C(Nc1nnc(S)s1)N[C@@H](Cc1ccccc1)C(=O)NCC1CCCCC1 |
| 4.80 | CNC(=O)[C@H](Cc1ccc(OC)cc1)NC(=O)Nc1nnc(S)s1 |
| 5.74 | O=C(Nc1nnc(S)s1)N[C@@H](Cc1ccc(F)cc1)C(=O)N1CCN(c2ccccn2)CC1 |
| 6.11 | O=C(Nc1nnc(S)s1)N[C@@H](Cc1c(F)c(F)c(F)c(F)c1F)C(=O)N1CCN(c2ccccn2)CC1 |
| 4.77 | COC(=O)[C@H](Cc1ccccc1)NC(=O)Nc1nnc(S)s1 |
| < 3.70 | NC(=O)[C@H](Cc1ccccc1)NC(=O)Nc1nnc(S)s1 |
| 4.80 | O=C(Nc1nnc(S)s1)N[C@@H](Cc1ccccc1)C(=O)N1CCN(c2ncccn2)CC1 |
| 4.82 | O=C(Nc1nnc(S)s1)N[C@@H](Cc1ccccc1)C(=O)NCc1ccccc1 |
| < 3.70 | CNC(=O)[C@@H](Cc1ccccc1)NC(=O)Nc1n[nH]c(=S)s1 |
| 4.17 | CNC(=O)[C@H](CC1CCCCC1)NC(=O)Nc1n[nH]c(=S)s1 |
| 4.39 | CNC(=O)[C@@H](NC(=O)Nc1n[nH]c(=S)s1)c1ccccc1 |
| < 4.00 | CNC(=O)CNC(=O)Nc1n[nH]c(=S)s1 |
| 3.65 | CN(C)C(=O)[C@H](Cc1ccccc1)NC(=O)Nc1nnc(S)s1 |
| 4.28 | CNC(=O)[C@H](COCc1ccccc1)NC(=O)Nc1nnc(S)s1 |
| 5.05 | CNC(=O)[C@H](Cc1ccc(F)cc1)NC(=O)Nc1nnc(S)s1 |
| 4.49 | O=C(Nc1nnc(S)s1)N[C@@H](Cc1ccccc1)C(=O)N1CCOCC1 |
| 4.82 | CNC(=O)[C@H](Cc1ccc([N+](=O)[O-])cc1)NC(=O)Nc1nnc(S)s1 |

Source: ChEMBL document CHEMBL1132172, “Synthesis of a series of stromelysin-selective thiadiazole urea matrix metalloproteinase inhibitors” (J Med Chem, 1999)
